# pEC50: −log10 of the molar value.
# Tests used:
# [1] = NOVARTIS: Cytotoxicity against human hepatocellular carcinoma cell line (Huh7); type: toxicity, cell-based, Huh-7; details: Huh7 cells (hepatocellular carcinoma cell line)
# Plasmodium falciparum [2] = experiment: NOVARTIS: Inhibition of Plasmodium falciparum 3D7 (drug-susceptible) proliferation in erythrocyte-based infection assay; type: functional, organism-based; details: Plasmodium falciparum, 3D7
# Plasmodium falciparum [3] = experiment: NOVARTIS: Inhibition of Plasmodium falciparum W2 (drug-resistant) proliferation in erythrocyte-based infection assay; type: functional, organism-based; details: Plasmodium falciparum, W2; read-out: EC50
SMILES,CC50 [1],pEC50 (Plasmodium falciparum [2]),pEC50 (Plasmodium falciparum [3])
CCC(c1nc2ccccc2c(=O)n1-c1ccc(Cl)cc1)N(Cc1ccccc1)C(=O)Nc1c(C(C)C)cccc1C(C)C (stereo unspecified),> 10000 nM,< 5.85,7.57
Cc1ccc(NC(=O)c2sc3nc4c(c(-c5cccs5)c3c2N)CCCCC4)cc1,> 100000 nM,5.25,5.81
COc1ccc(-c2n(CC(=O)OC3CC(C)CCC3C(C)C)c3ccccc3[n+]2C)cc1 (stereo unspecified),13400 nM,6.41,6.63
CCOc1ccc2[nH]c3c(NCCN(C)C)ncnc3c2c1,32500 nM,6.11,6.36
Cc1ccc(O)c(NC(=O)c2cnn3c(C(F)(F)F)cc(-c4ccc(Br)cc4)nc23)c1,> 100000 nM,5.13,5.61
CC(C)(C)CC(C)(C)Nc1c(-c2ccccc2OC(=O)c2ccccc2)nc2ccccn12,> 1260 nM,5.97,7.57
O=C(c1ccc2nc(N3CCCCC3)sc2c1)N1CCN(Cc2ccccc2)CC1,> 100000 nM,6.04,6.30
CC(C)N(C)Cc1cc(-c2nc3ccccc3s2)ccc1O,> 100000 nM,5.10,6.29
CCCOC(=O)C1=C(C)NC2=C(C(=O)CC(c3ccc(OC)cc3)C2)C1c1ccc(Cl)cc1Cl (stereo unspecified),> 100000 nM,7.43,7.79
CCN1CCN(c2cc(C)c(C#N)c3nc4ccccc4n23)CC1,> 100000 nM,6.10,5.82
CCCCNC(=O)N1CCN(C(=O)C(Cc2c[nH]c3ccccc23)NC(=O)Nc2cccc(C#N)c2)CC1C (stereo unspecified),> 100000 nM,6.81,6.72
CCCCCCC[N+](CC)(CC)CCCCc1ccc(Cl)cc1,> 10000 nM,6.37,7.04
CCN1C(=O)N(CC(N)=O)C(=O)C12CCN(Cc1ccc(N(C)c3ccccc3)cc1)CC2,57800 nM,< 4.90,5.11
CCOc1ccccc1-n1c(N)c(C(=O)Nc2ccc(C)cc2)sc1=S,> 100000 nM,5.88,6.44
CSc1nc2sc3c(c2c(=O)n1-c1ccccc1)CCN(CCc1ccccc1)C3,> 69300 nM,6.07,5.94
CCCCNC(=O)CCCNC(=O)Cn1cnc2sc3c(c2c1=O)CCCC3,> 10000 nM,< 5.90,< 6.17
CC(C)(c1ccc(Oc2ccc(NC(=O)C(F)(F)F)cc2)cc1)c1cccc(Oc2ccc(NC(=O)C(F)(F)F)cc2)c1,> 10000 nM,5.69,< 6.01
COc1cc(OC)c(Br)c(-n2c(C(C)N(CCC(C)C)C(=O)c3ccccc3C)nc3ccccc3c2=O)c1 (stereo unspecified),> 10000 nM,< 5.90,> 7.47
CCCc1ccc(OCCNC(=O)CCNC(=O)Nc2cccc(Cl)c2)cc1,> 10000 nM,< 5.86,< 6.00
CC(C)CNC(=O)c1cnc(NCCc2ccncc2)nc1NCCc1ccccc1,> 10000 nM,6.09,6.14
O=S(=O)(NC1=CC2C(=Nc3ccc(NS(=O)(=O)c4ccc(Br)cc4)cc3N2c2ccccc2)C=C1)c1ccc(Br)cc1 (stereo unspecified),> 10000 nM,6.03,< 5.83
O=C(NC1CCN(Cc2ccccc2)CC1)[C@@H](c1ccccc1)N1Cc2ccccc2C1=O,> 100000 nM,< 4.90,5.38
CC1CCCCN1CCCNc1ncc(C(=O)NCC2CCCO2)c(NCCc2ccccc2)n1 (stereo unspecified),> 10000 nM,6.04,7.57
COC(=O)C1=C(C)NC2=C(C(=O)CC(c3ccc(Cl)cc3)C2)C1c1ccc(F)cc1 (stereo unspecified),> 100000 nM,6.73,7.01
COc1cc(NC2=CC(=O)C(=O)c3ccccc32)c(OC)cc1Cl,11200 nM,6.53,6.16
O=C1CSC2=NCN(c3cccc(Cl)c3)CN12,> 100000 nM,< 4.90,5.90
COc1ccc(/C=C/c2ccc3ccccc3[n+]2C)cc1OC,> 10000 nM,6.06,6.06

# — ChEMBL document CHEMBL1156829 (Proc Natl Acad Sci U S A, 2008)
